# Laboratory results from patent US11541027B2 (DelMar Pharmaceuticals, Inc., priority 2014, dated 2023).
# pIC50: −log10 of the molar value.
# How the values were obtained:
# [1] = test system: NSCLC cell lines other than H460; test: Cytotoxicity in NSCLC tumor models, range over the cell lines other than H460; assay type: cell-based, human; conditions: NSCLC cell lines other than H460, single agents
# [2] = test system: H1975 (TKI-resistant) human lung adenocarcinoma xenograft tumors; test: H1975 NSCLC xenograft tumor model in female Rag2 mice
# Description: Rag2 mice bearing subcutaneous human lung adenocarcinoma xenograft tumors of either TKI-resistant (H1975) or TKI-sensitive (A549) origin were treated.
# Two human NSCLC cell lines, A549 (TKI-sensitive) and H1975 (TKI-resistant), were used as xenograft tumor models in female Rag2 mice. The mice were 6 to 8 weeks of age and weighed 18-23 grams. 10 mice were used per group.
# Rag2 mice bearing subcutaneous human lung adenocarcinoma xenograft tumors of either TKI-sensitive (A549) or TKI-resistant (H1975) origin were treated. […] Saline was used as control treatment. Disease progression was evaluated by tumor volume, clinical observations and body weight measurements. Blood samples were analyzed for CBC/differential analyses to assess myelosuppression or other changes in blood chemistry.
# Cell number for inoculation was 5×10^6 cells for A549 cells in an injection volume of 50 μL per animal. For H1975 cells, cell number for inoculation was 2×10^6 cells in an injection volume of 50 μL per animal.
# Treatment was initiated at average tumor volume of 100-150 mm^3.
# Tumor growth delay (TGD) was calculated according to Equation (2): TGD=DTtx−DTcontrol (2).
# For these calculations, TV is tumor volume, tx is treatment, int is initial, DT is doubling time for mean tumor volume from 200 mm^3 to 400 mm^3 for A549 or from 300 mm^3 to 600 mm^3 for H1975. MTV is mean tumor volume in mm^3 and TCR is tumor control ratio.
# Disease progression was evaluated by tumor volume, clinical observations and body weight measurements.
# Ovcar-10 = test: 5-day MTT cytotoxicity, wild-type p53 ovarian tumor panel; assay type: cell-based, human; conditions: Ovcar-10, wt-p53, cisplatin-resistant, N = 3, read-out: DAG IC50 (μM) Mean
# Description: (§1) The ovarian tumor panel lines are as follows: • is A2780; ▪ is 2780-CP16; ▴ is OVCAR-10; ▾ is HEY; and ♦ is OVCA-433. Dose-response curves were undertaken using a 5-day MTT assay to determine cell viability. The A2780 represents a cisplatin-sensitive model, whereas the other four cell lines are cisplatin-resistant. The cell line 2780-CP16 was derived for cisplatin resistance from A2780. The properties of some of these cell lines are disclosed in G. S. Hagopian et al., “Expression of p53 in Cisplatin-Resistant Ovarian Cell Lines: Modulation with the Novel Platinum Analog (1R,2R-Diaminocyclohexane)(trans-diacetato)(dichloro)-platinum(IV),” Clin. Cancer Res. 5: 655-663 (1999), and in Z. H. Siddik et al., “Independent Pathways of p53 Induction by Cisplatin and X-Rays in a Cisplatin-Resistant Cell Line,” Cancer Res. 58: 698-703 (1998), both incorporated herein by this reference.
# (§2) The data of FIG. 7 are shown in Table 8 in terms of the IC50 of dianhdrogalactitol in the wild-type p53 human ovarian tumor panel.
# Hey = test: as above; assay type: cell-based, human; conditions: wt-p53, cisplatin-resistant, N = 3, read-out: DAG IC50 (μM) Mean
# Description: as §1, §2
# 2780-CP = test: as above; assay type: cell-based, human; conditions: wt-p53, cisplatin-resistant, N = 3, read-out: DAG IC50 (μM) Mean
# Description: as §1, §2
# A2780 = test: as above; assay type: cell-based, human; conditions: A2780, wt-p53, cisplatin-sensitive, N = 3, read-out: DAG IC50 (μM) Mean
# Description: as §1, §2
# OVCA-433 = test: as above; assay type: cell-based, human; conditions: OVCA-433, wt-p53, cisplatin-resistant, N = 3, read-out: DAG IC50 (μM) Mean
# Description: as §1, §2
# [3] = Stability of reconstituted dianhydrogalactitol stock solution; assay type: physicochemical; conditions: 8 mg/mL in 0.9% sodium chloride for injection
# Description: For administration, 5 mL of 0.9% sodium chloride for injection, USP (saline) was added to yield a DAG solution with a concentration of 8 mg/mL.
# RIF-1 cell-line = test: Standard syngeneic mouse fibrosarcoma model, tumor growth delay; assay type: in vivo; conditions: 10 mg/kg, single IP injection, RIF-1 in C3H mice; for Tumor Delay: vs untreated
# H157 = test: Cytotoxicity in NSCLC tumor models; assay type: cell-based, human; conditions: H157, p53 mu; N = 3
# Description: (§3) The cell lines include cell lines with wild-type p53, cell lines with mutant p53, and cell lines in which p53 has been knocked out (“null”). The properties of these cell lines are described in F. Bunz et al., “Requirement for p53 and p21 to Sustain G2 Arrest After DNA Damage,” Science 282: 1497-1501 (1998), incorporated herein by this reference.
# H1975 = test: Cytotoxicity in NSCLC tumor models; assay type: cell-based, human; conditions: H1975, p53 mu; N = 3
# Description: as §3
# SkLU1 = test: Cytotoxicity in NSCLC tumor models; assay type: cell-based, human; conditions: SkLU1, p53 mu; N = 3
# Description: as §3
# H226 = test: Cytotoxicity in NSCLC tumor models; assay type: cell-based, human; conditions: H226, p53 wt; N = 3
# Description: as §3
# H2122 = test: Cytotoxicity in NSCLC tumor models; assay type: cell-based, human; conditions: H2122, p53 mu; N = 3
# Description: as §3
# H1299 = test: Cytotoxicity in NSCLC tumor models; assay type: cell-based, human; conditions: H1299, p53 null; N = 3
# Description: as §3
# H838 = test: Cytotoxicity in NSCLC tumor models; assay type: cell-based, human; conditions: H838, p53 wt; N = 3
# Description: as §3
# A549 = test: Cytotoxicity in NSCLC tumor models; assay type: cell-based, human; conditions: A549, p53 wt; N = 3
# Description: as §3
# H460 = test: Cytotoxicity in NSCLC tumor models; assay type: cell-based, human; conditions: H460, p53 wt; N = 3; listed as DAG
# Description: as §3
# [4] = 4 mg/kg i.p., stopped after 6 doses
substance,measurement,setting,value
dianhydrogalactitol,pIC50,[1],5.21 to 6.05
same,MTV at Day 31,"[2]; 2 mg/kg i.p. M, W, F × 3",396 mm^3
same,Median survival,"[2]; 2 mg/kg i.p. M, W, F × 3",31 days
same,TCR at Day 31,"[2]; 2 mg/kg i.p. M, W, F × 3, tumor control ratio",0.87
same,MTV at Day 31,"[2]; 3 mg/kg i.p. M, W, F × 3",383 mm^3
same,Median survival,"[2]; 3 mg/kg i.p. M, W, F × 3",31 days
same,TCR at Day 31,"[2]; 3 mg/kg i.p. M, W, F × 3, tumor control ratio",0.84
same,body weight,"[2]; 4 mg/kg i.p. (group 5), treatment stopped after 6 doses, mice then quickly recovered",significant body weight loss
same,MTV at Day 31,[2]; [4],262 mm^3
same,Median survival,[2]; [4],41 days
same,TCR at Day 31,"[2]; 4 mg/kg i.p., stopped after 6 doses, tumor control ratio",0.57
same,IC50,Ovcar-10,3.6 µM
same,IC50,Hey,2.1 µM
same,IC50,2780-CP,2.2 µM
same,IC50,A2780,0.54 µM
same,IC50,OVCA-433,2.3 µM
same,time for which the stock solution was stable,[3]; 4° C.,24 h
same,time for which the stock solution was stable,[3]; room temperature,4 h
same,Days to 4 × Median Tumor Size,RIF-1 cell-line,11.45 days
same,Tumor Delay,RIF-1 cell-line,5.16 days
same,Tumor Delay,RIF-1 cell-line; listed as dianhydrogalactitol,5.6 days
same,IC50,H157,4.48 µM
same,IC50,H1975,0.9 µM
same,IC50,SkLU1,2.72 µM
same,IC50,H226,6.11 µM
same,IC50,H2122,2.84 µM
same,IC50,H1299,2.37 µM
same,IC50,H838,4.52 µM
same,IC50,A549,1.75 µM
same,IC50,H460,0.49 µM
